Experimental data reported in patent US20210244735A1, “COMPOSITIONS AND METHODS FOR TREATING MYELOFIBROSIS” (Impact Biomedicines, Inc., priority 2010, published 2021).
Structures can show the parent of a compound that is named as a salt.

Tests used:
[1] = Compatibility with capsule shells, accelerated stability; format: physicochemical; details: 250 mg filled capsules, 40° C./75% RH and 25° C./60% RH, t=1, 2, and 3 weeks
Protocol: Hard gelatin and hydroxypropylmethyl cellulose (HPMC) capsule shells (size […]) were filled with 250 mg of TG101348 di-HCl monohydrate. The filled capsules were placed on accelerated stability (40° C./75% relative humidity (RH) and 25° C./60% RH). The capsules were packaged into 30 mL (1 oz) amber high density polyethylene (HDPE) bottles.

JAK2V617F allele burden = assay: Phase 1 study: JAK2V617F allele burden in granulocyte fraction of peripheral blood; format: in vivo, human
Protocol: Responses were measured every 4 weeks per International Working Group for MPN Research and Treatment (IWG-MRT) criteria (Tefferi A et al., Blood 108:1497-1503, 2006). Assessment of bone marrow histology was performed at baseline and every 24 weeks of therapy. Changes in JAK2V 617F allele burden in the granulocyte fraction of peripheral blood were measured as previously described (Kittur J et al., Cancer 109:2279-2284, 2007); the assessments were at baseline and every 4 weeks during the first 6 cycles, and every 6th cycle of therapy in the extension study.

human caco-2 cells = assay: caco-2 permeability; format: in vitro ADME; details: caco-2 permeability data
[2] = Drug substance blend compatibility with fillers and lubricants; format: physicochemical; details: blends with lactose, mannitol, MCC Avicel PH102, MCC ProSolv 90 HD; magnesium stearate, Pruv; 60° C./ambient humidity
Protocol: A matrix of formulation blends was designed to study the compatibility of TG101348 di-HCl monohydrate with four fillers and two lubricants (Table 17). Blends were prepared at a scale of 2.5 g each by prescreening all components through a 500 μm sieve, blending all components except the lubricant using aTurbula T2B blender for 10 min at 22 rpm, screening the blend through a 500 μm sieve, blending for 10 min, adding lubricant (weight adjusted) and blending for 5 min The blends were manufactured and stored in 30 mL amber HDPE bottles under primary (60° C./ambient humidity) and backup conditions (40° C./75% RH, 25° C./60% RH, and 5° C.).

serum EPO and TPO = assay: Phase 1 study: serum EPO and TPO levels; format: in vivo, human; details: after treatment initiation (data not shown)
[3] = Bioavailability in multiple species; details: in vivo, oral

In the case of `Cc1cnc(Nc2ccc(OCCN3CCCC3)cc2)nc1Nc1cccc(S(=O)(=O)NC(C)(C)C)c1` [TG101348, N-tert-butyl-3-[(5-methyl-2-{[4-(2-pyrrolidin-1-ylethoxy)phenyl]amino}pyrimidin-4-yl)amino]benzenesulfonamide dihydrochloride monohydrate], the “changes in attributes (appearance, assay, impurities) in capsule shells” value [1] is reported as “No appreciable changes”, the “patients with ≥50% reduction in VF allele burden” value (JAK2V617F allele burden; 48 evaluable VF-positive patients, last available follow-up) is reported as 21 (44%) patients (%) and the “subjects with ≥50% decrease in JAK2V617F” value (JAK2V617F allele burden; baseline >20%, 18 subjects who completed 12 cycles) is reported as 7 (39%) subjects (%). For the same compound, the “JAK2V617F allele burden compared to pre-study baseline” value (JAK2V617F allele burden; end of cycle 6 and cycle 12, Wilcoxon matched-pair signed-rank test) was “significant decrease”, the permeability (human caco-2 cells) was “on the borderline between “low” and “high” permeability” and the “compatibility with fillers and lubricants: changes in attributes (appearance, assay, impurities)” value [2] was “no incompatibilities”. The “serum EPO and to a lesser extent TPO levels relative to baseline” value (serum EPO and TPO) was “increases” and the bioavailability [3] was 20 to 25%.
